How the values were obtained:
[1] = tested on: MX2; test: MX2 expression in THP-1 cells (qRT-PCR, Western-blot); type: cell-based, human; conditions: THP-1 cells, 50, 100, 200, 300 μg/ml, overnight (FIG. 8B)
Description: (§1) To determine whether CC5Ap induces MX2 expression, THP-1 cells were treated with different doses (units) of CC5Ap for 16 hours. The THP-1 cells were obtained from the NIH AIDS Reagent Program. One unit of CC5Ap is defined as the amount of CC5Ap needed to induce a 3-fold increase in A3G mRNA expression over a period of 16 hours, using 5×10^5 THP-1 cells in 500 μl of cell culture medium. MX2 expression was measured by qRT-PCR. After treatment the cells were either subjected to measuring MX2 expression by Western-blot analyses or infected with HIV-1.
(§2) Synthetic G-M from Toronto Research Chemicals (Cat: A178230) was purchased. The synthetic G-M structure was confirmed by 1H NMR (D2O) and MS. Different doses of G-M were used to treat THP-1 cells. The THP-1 cells were obtained from the NIH AIDS Reagent Program. Specifically, 50 μg, 100 μg, 200 μg and 300 μg/ml G-M (shown in FIGS. 8A-8C as G-M 0.5, 1, 2, 3, respectively) were used to treat THP-1 cells. 1 unit CC5A A/E and CC5Ap were used as the controls. The cells were treated overnight. The mRNA levels of A3G and MX2 were measured by qRT-PCR.

[2] = tested on: THP-1 cells; test: Cell number of G-M treated THP-1 samples; type: cell-based, human
[3] = tested on: Vpr-BlaM containing HIV NL4-3 virus; test: HIV-1 viral entry assay (Vpr-BlaM, CCF2) in THP-1 cells; type: cell-based; conditions: THP-1 cells pre-treated overnight, compared to untreated control (FIGS. 12, 14)
Source text: To determine whether the disclosed molecules have effects on HIV-1 viral entry, a sensitive and specific enzyme-based assay developed by Marielle et al (6) was used. THP-1 cells were pre-treated with AMD3100 (HIV entry inhibitor), CC5A/PBS (cell lysate of Streptococcus Cristatus CC5A), and different amounts of G-M (GlcNAc-MurNAc, which is a disaccharide molecule of glycan strain) overnight. PBS treated THP-1 cells were used as the untreated control. After washing, Vpr-BlaM containing HIV NL4-3 virus was used to infect the cells. After washing again, the cells were subjected to CCF2 staining overnight. The following day, the cells were analyzed by FACSAria III for CCF2 (green/FITC-A) and cleaved CCF2 (DAPI-A) florescence.
THP-1 cells were treated with CC5Ap and with cell lysate from Streptococcus Mutant (S. MuP). The protocol described in Example 10 was followed to test the effects of CC5Ap and S.MuP on HIV viral entry.

[4] = tested on: HIV IIIB; test: HIV IIIB replication in THP-1 cells, nine days culture; type: cell-based; conditions: THP-1 cells pre-treated 1 hour, qRT-PCR (FIG. 8C)
Description: To determine whether G-M inhibits HIV IIIB replication, THP-1 cells were pre-treated 1 hour with G-M or CC5Ap. 100 ng […] content of IIIB was added into the cell culture to infect the cells overnight. Post-infection, cells were washed 2 times and cultured for nine days. The viral supernatant was subjected to qRT-PCR to measure viral release.

[5] = tested on: A3G; test: A3G mRNA expression in THP-1 cells by qRT-PCR; type: cell-based, human
Description: Equal volumes of an S. cristatus CC5A whole cell extract (CC5A1E), fraction A (glycan strands and peptides), fraction B (glycan strands), and CC5Ap were used to treat THP-1 cells for 16 hours. THP-1 cell line is a human monocytic cell line derived from acute monocytic leukemia. The THP-1 cells were obtained from the NIH AIDS Reagent Program. qRT-PCR was used to detect the relative expression of A3G mRNA in THP-1 cells. PBS treated THP-1 cells were used as a control.
The cell wall of S. Mu was isolated from the bacteria and the isolated cell wall was subjected to the cell component isolation shown in FIG. 2A. Oligosaccharide molecules (from the same amount of bacteria) of CC5Ap and S. Mu were used to treat THP-1 cells. The THP-1 cells were obtained from the NIH AIDS Reagent Program. PBS and CC5A/E were used as the controls. A3G expression was measured by qRT-PCR.
as §1, §2

CC(=O)N[C@H]1[C@H](O[C@H]2[C@H](O[C@H](C)C(=O)O)[C@@H](NC(C)=O)C(O)O[C@@H]2CO)O[C@H](CO)[C@@H](O)[C@@H]1O (stereo partly drawn) [G-M, N-Acetyl-D-glucosamine-(1-4)-N-acetylmuramic acid]
MX2 mRNA expression [1]: enhanced A3G mRNA expression (FIG. 8A) and MX2 mRNA expression (FIG. 8B) in a dose-dependent manner | noticeable cell number difference between PBS and treated samples [2]: not observed | relative HIV entry [3]: reduced HIV entry dramatically | HIV IIIB replication (viral release) [4]: inhibits HIV IIIB replication in a dose-dependent manner | experimentally determined activity of synthetic G-M ([5]; 1 unit = amount inducing 3-fold A3G mRNA increase in 16 hours, 5×10^5 THP-1 cells in 500 μl): 0.005 units/μg | A3G mRNA expression ([5]; THP-1 cells, 50, 100, 200, 300 μg/ml, overnight (FIG. 8A)): enhanced A3G mRNA expression (FIG. 8A) and MX2 mRNA expression (FIG. 8B) in a dose-dependent manner | share of the total CC5Ap activity ([5]; based on G-M concentration of CC5Ap prep (about 100 μg/mL) and activity of synthetic G-M): about 5%

Source: patent US12186348B2, “Glycan strands and oligosaccharides derived from Streptococcus bacteria” (Meharry Medical College, priority 2018, dated 2025)
